Results reported in patent publication US20210380695A1, “STING AGONIST COMBINATION TREATMENTS WITH IMMUNE CHECKPOINT INHIBITORS” (ImmuneSensor Therapeutics, Inc., priority 2020, published 2021).
Where two headings read alike, the source gives them in different places.

What was measured:
[1] = Subcutaneous dose escalation and repeat-dose tolerability study of Compound A in cynomolgus monkeys (priming and maintenance doses); format: in vivo
Method: (§1) Male and female cynomolgus monkeys were assigned to groups and doses of Compound A were administered. Animals were dosed via subcutaneous injection at a volume of 2 mL/kg. The vehicle control article/diluent was phosphate-buffered saline (PBS).
(§2) IFNα, TNFα, and IL-6 levels were measured at 3, 6, and 12 hours post-dosing. Dose related but variable changes were observed. […] IL-6 increases at 3 mg/kg and 10 mg/kg persisted at 12 hours postdose. TNFα levels increased at 3 hours in the 1 mg/kg group. […] The cytokine responses are consistent with the predicted STING pathway activation. Morbidity was observed within 1 day of administration of the 10 mg/kg/dose; as such, 3 mg/kg was selected as the high dose for the following repeat-dose phase (Phase II).
(§3) In Phase II, 3 weekly administrations of 0.3 mg/kg of Compound A were tolerated. The 3 mg/kg dose in naïve animals was not tolerated and led to clinical observations of morbidity or death within 1 day of dosing. The findings were consistent with Compound A-mediated inflammatory response that was considered the probable cause of death.
(§4) A priming dose of 0.1 mg/kg/day was administered 4 days prior to the first dose of 1.0 mg/kg/day Compound A to potentially allow a tolerance to develop to avoid the acute mortality noted during Phase II following administration of 3.0 mg/kg/day of Compound A to naïve animals. […] Increased plasma levels of IL-6 were noted 3 hours and 6 hours postdose.
Edema is consistent with an inflammatory related pathology and the exaggerated pharmacology of the mode of action of Compound A. Administration of 3 weekly doses of 1.0 mg/kg/day (preceded by a priming dose of 0.1 mg/kg) or 0.6 mg/kg (without a priming dose) was tolerated. Animals tolerated an escalation to 3.0 mg/kg in Phase I, due to previous administrations at lower levels that allowed a tolerance to develop.

STING pathway = experiment: Plasma cytokine and chemokine levels after subcutaneous Compound A in cynomolgus monkeys; format: in vivo; details: for plasma levels of IL-6: 3 hours and 6 hours postdose; for plasma IFNα levels: male or female
Method: as §1, §2, §3, §4

[2] = Exposure (Cmax, AUC) of Compound A in cynomolgus monkeys; format: in vivo
Method: as §1, §3

B16F10 melanoma cells [3] = experiment: B16F10 melanoma tumor model in C57BL6 mice: Compound A with anti-CTLA4 and/or anti-PD-L1 antibody; format: in vivo
Method: FIG. 2, panels A and B show the effect of a triple combination of Compound A (I.T.), PD-L1 antibody (I.P.), and anti-CTLA4 antibody (I.P.). Groups of C57BL6 mice (n=5) bearing B16F10 tumors were treated as indicated on day 6, 10, and 14 after tumor implantation. […] Data are shown as mean±SEM.
In the same set of experiments, the combination of 0.3 μg of Compound A (I.T.) and 200 μg of anti-PD-L1 antibody (I.P.) was also tested with and without the combination of 200 μg of anti-CTLA4 antibody (I.P.).

B16F10 melanoma cells [4] = details: intratumorally
Method: Groups of C57BL6/J mice (n=5) were implanted subcutaneously with B16F10 melanoma cells into the right flank on day 0. On day 6, 9, 12, and 15, mice were treated intratumorally with anti-CTLA4 antibody or DMXAA, or the combination of both anti-CTLA4 antibody and DMXAA. […] Data are shown as mean±SEM.
Female C57BL6 mice at the age of 7-8 weeks were implanted on day 0 with 10^6 of B16F10 melanoma cells (ATCC CRL-6475) subcutaneously on their right flanks. On day 6, tumors were measured and mice were regrouped so that each group (n=5) had similar average tumor volumes (˜120 mm^3). On day 6, 9, 12, 15, mice were treated intratumorally with 50 μg of anti-CTLA4 antibody (BioXcell, BE0614), or 50 μg of DMXAA (Sigma-Aldrich, D5817), or the combination of both the anti-CTLA4 antibody and DMXAA. Mock treated group were injected with PBS intratumorally. Tumor volumes were measured every 2-3 days and mouse survival was monitored daily.

[5] = Phase I dose escalation, subcutaneous injection
[6] = Phase II, 3 mg/kg dose in naïve animals
[7] = alone, I.T., day 6, 10, 14: 0.3 μg Compound A or 50 μg anti-CTLA4 antibody
[8] = combination 0.3 μg Compound A (I.T.) with 10 μg anti-CTLA4 antibody (I.T.)
[9] = combination 0.3 μg Compound A (I.T.) with 50 μg anti-CTLA4 antibody (I.T.)
[10] = alone, day 6, 9, 12, 15: 50 μg anti-CTLA4 antibody or 50 μg DMXAA
[11] = combination 50 μg anti-CTLA4 antibody and 50 μg DMXAA

Compound: Nc1nc2c(ncn2[C@@H]2O[C@@H]3COP(=O)(O)OC4C(O)[C@H](n5cnc6c(N)ncnc65)O[C@@H]4COP(=O)(O)OC2C3OCC(F)(F)F)c(=O)[nH]1 (stereo partly drawn) [Compound A]
- tolerability ([1]; 3 weekly doses of 0.6 mg/kg without a priming dose): tolerated
- tolerability ([1]; 3 weekly doses of 1.0 mg/kg/day preceded by a priming dose of 0.1 mg/kg): tolerated
- dose level tolerated on escalation [1, 5]: up to 3.0 mg/kg/dose
- findings on escalation up to 3.0 mg/kg/dose [1, 5]: limited to increased body temperature and elevated IFNα, IL-6, and TNFα cytokine levels
- time to morbidity after administration ([1]; Phase I, 10 mg/kg/dose): ≤ 1 days
- time to morbidity or death after dosing [1, 6]: ≤ 1 days
- tolerability [1, 6]: not tolerated
- tolerability ([1]; Phase II, 3 weekly administrations of 0.3 mg/kg): tolerated
- survival ([1]; Phase III, three weekly doses of 0.6 or 1.0 mg/kg/day (1.0 preceded by priming dose of 0.1 mg/kg/day)): survived until scheduled sacrifice
- compound-related findings ([1]; animals administered 0.6 or 1.0 mg/kg/day): limited to a transient body temperature increase and mild to moderate clinical and anatomic pathology findings
- dose not tolerated (acute morbidity and/or death, pulmonary edema) ([1]; naïve animals): ≥ 3.0 mg/kg
- IFNα levels (STING pathway; Phase I, 1 mg/kg and 3 mg/kg groups, 3 hours and 6 hours post dosing): Moderate levels
- TNFα levels (STING pathway; Phase I, 1 mg/kg group, 3 hours): increased
- TNFα levels (STING pathway; Phase I, 3 mg/kg and 10 mg/kg groups): Lower levels
- IFNα levels (STING pathway; Phase I, 3 mg/kg and 10 mg/kg, 12 hours after dosing): decreased 12 hours after dosing, but did not return to pre-dose levels
- IL-6 increases (STING pathway; Phase I, 3 mg/kg and 10 mg/kg, 12 hours postdose): persisted
- IFNα levels (STING pathway; Phase I, 10 mg/kg group): Higher levels
- plasma IL-6 levels (STING pathway; Phase I, all groups, 3 and 6 hours post dosing): Increases
- IL-12, G-CSF, and IFNγ levels (STING pathway; Phase II): sporadic increases
- changes in pro-inflammatory cytokines and chemokines MCP-1 and IP-10 (STING pathway; Phase II): suggestive of an inflammatory response with resolution by 24 hours postdose
- plasma IL-1ra, IL-6, and IFNα cytokine levels (STING pathway; Phase II, 3 mg/kg dose level, 3 and 6 hours): dose-dependent increases
- plasma levels of IL-6 (STING pathway; Phase III, 0.1 mg/kg/day): Increased
- IP-10 (STING pathway; Phase III, 0.1 mg/kg/day, 3 hours post dosing, male and female): Slight elevation
- levels of TNFα (STING pathway; Phase III, 0.1 mg/kg/day, 6 hours postdose in male, 3 and 6 hours postdose in female): Elevated levels
- TNFα levels (STING pathway; Phase III, 0.1 mg/kg/day, 24 hours post dosing): returned to non-detectable level
- IL-6 levels (STING pathway; Phase III, 0.1 mg/kg/day, 24 hours postdose): returned to a non-detectable level
- plasma IFNα levels (STING pathway; Phase III, 0.1 mg/kg/day): did not cause significant increase
- plasma levels of IL-6 (STING pathway; Phase III, 0.6 mg/kg/day): Increased
- levels of TNFα (STING pathway; Phase III, 0.6 mg/kg/day, 6 hours postdose in male, 1.5, 3, and 6 hours postdose in female): Elevated levels
- plasma IFNα levels (STING pathway; Phase III, 0.6 mg/kg/day): did not cause significant increase
- IP-10 (STING pathway; Phase III, 0.6 mg/kg/day, throughout the time course): No significant elevation
- IP-10 level (STING pathway; Phase III, 1 mg/kg/day, 1.5, 3, and 6 hours postdose): no increased IP-10 level
- TNFα levels (STING pathway; Phase III, 1 mg/kg/day, 1.5, 3, and 6 hours postdose, male and female): Elevated
- IFNα levels (STING pathway; Phase III, 1 mg/kg/day, 1.5 and 3 hours postdose): did not cause significant change
- IL-6 levels (STING pathway; Phase III, 1 mg/kg/day, 3 and 6 hours postdose, male and female): Marked increase
- IFNα levels (STING pathway; Phase III, 1 mg/kg/day, 6 hours postdose, male and female): elevated levels
- increase of exposure (mean Cmax, AUC0-2, AUC0-8, AUC0-24) with dose ([2]; 0.3 to 3 mg/kg/day, Day 1 of Phase II): generally dose-proportional
- sex differences in mean Cmax, AUC0-2, AUC0-8, and AUC0-24 values ([2]; male vs female): less than 2 fold
- accumulation after multiple doses ([2]; multiple doses of 0.3 mg/kg/day): No accumulation
- mouse survival (B16F10 melanoma cells [3]; [7]): extended mouse survival
- tumor growth (B16F10 melanoma cells [3]; [7]): reduced tumor growth
- mouse survival compared to both agents alone (B16F10 melanoma cells [3]; [8]): improved mouse survival
- tumor growth compared to both agents alone (B16F10 melanoma cells [3]; [8]): further suppressed tumor growth
- suppression of tumor growth compared to 0.3 μg Compound A (I.T.) with 200 μg anti-CTLA4 antibody (I.P.) (B16F10 melanoma cells [3]; [9]): more effective
- tumor remission (B16F10 melanoma cells [3]; [9]): more dramatic tumor remission
- reduction in tumor growth compared to 0.3 μg Compound A (I.T.) with 50 μg anti-CTLA4 antibody (I.T.) (B16F10 melanoma cells [3]; combination 0.3 μg Compound A (I.T.) with 200 μg anti-CTLA4 antibody (I.P.)): inferior
- reduction in tumor growth compared to 0.3 μg Compound A (I.T.) with 50 μg anti-CTLA4 antibody (I.T.) (B16F10 melanoma cells [3]; combination 0.3 μg Compound A (I.T.) with 200 μg anti-PD-L1 antibody (I.P.)): inferior
- anti-tumor effect compared to 200 μg anti-CTLA4 antibody administered systemically (B16F10 melanoma cells [3]; combination intratumoral Compound A with 10 μg anti-CTLA4 antibody (I.T.)): similar
- tumor size and overall survival compared to 200 μg anti-CTLA4 antibody administered systemically (B16F10 melanoma cells [3]; combination intratumoral Compound A with 50 μg anti-CTLA4 antibody (I.T.)): significant benefits
- effect on tumor growth compared to 0.3 μg Compound A (I.T.) with 50 μg anti-CTLA4 antibody (I.T.) (B16F10 melanoma cells [3]; triple combination 0.3 μg Compound A (I.T.), 200 μg anti-PD-L1 antibody (I.P.), 200 μg anti-CTLA4 antibody (I.P.)): comparable

Compound: Cc1ccc2c(=O)c3cccc(CC(=O)O)c3oc2c1C [DMXAA]
- mice survival (B16F10 melanoma cells [4]; [10]): prolonged survival
- tumor growth (B16F10 melanoma cells [4]; [10]): greatly suppressed tumor growth
- controlling tumor growth compared to monotherapy (B16F10 melanoma cells [4]; [11]): significant improved effect
- extending survival compared to monotherapy (B16F10 melanoma cells [4]; [11]): significant improved effect
